Values of other authors in patent US20100105640A1, “Aromatase Inhibitors for Emergency Contraception” (priority 2005, published 2010).

Settings: Yuzpe n = 979, Levonorgestrel n = 977

SMILES: C#C[C@]1(O)CC[C@H]2[C@@H]3CCC4=CC(=O)CC[C@@H]4[C@H]3CC[C@@]21CC [Levonorgestrel, levonorgestrel]
- Percent with symptom (95% confidence interval): Breast tenderness: 10.8%
- Percent with symptom (95% confidence interval): Dizziness: 11.2%
- Percent with symptom (95% confidence interval): Fatigue: 16.9%
- Percent with symptom (95% confidence interval): Headache: 16.8%
- Percent with symptom (95% confidence interval): Low abdominal pain: 17.6%
- Percent with symptom (95% confidence interval): Nausea: 23.1%
- Percent with symptom (95% confidence interval): Vomiting: 5.6%
- Percent with symptom (95% confidence interval): All other adverse effects (mostly diarrhea and some irregular bleeding or spotting): 13.5%
